# According to US11352637B2, “Methods and compositions for herbicide tolerance in plants” (MONSANTO TECHNOLOGY LLC, priority 2017, dated 2022):
# Where two headings read alike, the source gives them in different places.
# What was measured:
# [1] = system: KsIAA16S in combination with KsTIR1; assay: Yeast two-hybrid (Y2H) assay: KsIAA16S binding with KsTIR1 in presence of auxin; design: species or system Kochia scoparia; conditions: allele KsIAA16S, yeast colony growth
# Protocol: (§1) Yeast two-hybrid (Y2H) studies were conducted using the Matchmaker® Gold Yeast Two-Hybrid System: vectors, transformation protocols and yeast strains (Clonetech Laboratories, Inc.). The coding sequences for the KsIAA16R (SEQ ID NO: 220), KsIAA16S (SEQ ID NO: 218), KsTIR1 (SEQ ID NO: 285), KsAFB6 (SEQ ID NO: 287), KsAFB2 (SEQ ID NO: 289), and KsAFB5 (SEQ ID NO: 291) were PCR amplified using primers specified in Table 2.
# (§2) PCR products were gel purified and recombined into NdeI/NotI digested pGADT7 or pGBKT7 vectors using the In-Fusion® cloning system (Clonetech Laboratories, Inc.). The pGBKT7 vector contained the GAL4 DNA binding domain, rendering the fusions as the “bait,” whereas the “prey” were the fusions containing the pGADT7 vector, which contained the GAL4 activation domain. All vectors were first sequence verified and then the listed vector combinations were co-transformed into the yeast strain, Y2HGold. […] Transformants were plated on SC-Trp-Leu plates to select for those containing both plasmids. Four healthy colonies were selected at random and resuspended into 300 μL of 0.1% agar in water. Five μL of this dilution was replica spotted onto each plate. Plates were incubated at 30° C. for 3 days prior to evaluation of colony growth. […]
# [2] = system: KsIAA16R in combination with KsTIR1; assay: Yeast two-hybrid (Y2H) assay: KsIAA16R binding with KsTIR1 in presence of auxin; design: species or system Kochia scoparia; conditions: compared with KsIAA16S; concentration not given
# Protocol: as §1, §2
# [3] = system: KsIAA16 (R and S alleles) with KsTIR1 and/or KsAFB6; assay: Y2H assay, summary statements over the protein combinations tested; assay type: binding, Kochia scoparia; conditions: at the concentrations tested
# Protocol: as §1
# PCR products were gel purified and recombined into NdeI/NotI digested pGADT7 or pGBKT7 vectors using the In-Fusion® cloning system (Clonetech Laboratories, Inc.). The pGBKT7 vector contained the GAL4 DNA binding domain, rendering the fusions as the “bait,” whereas the “prey” were the fusions containing the pGADT7 vector, which contained the GAL4 activation domain. All vectors were first sequence verified and then the listed vector combinations were co-transformed into the yeast strain, Y2HGold. […] Transformants were plated on SC-Trp-Leu plates to select for those containing both plasmids. Four healthy colonies were selected at random and resuspended into 300 μL of 0.1% agar in water. Five μL of this dilution was replica spotted onto each plate. Plates were incubated at 30° C. for 3 days prior to evaluation of colony growth.
# This method enabled the study of the binding/interaction of the Kochia R and S alleles of KsIAA16 with each of the Kochia TIR/AFB homologs (KsTIR1 (SEQ ID NO: 285), and KsAFB6 (SEQ ID NO: 287)) in the absence or presence of 100 μM or 500 μM exogenous concentrations of IAA, NAA, dicamba, and 2,4-D, picloram, triclopyr, quinclorac, fluroxypyr or phenylacetic acid (PAA).
# [4] = system: seedlings of the R and S Kochia biotypes; assay: Root elongation response of Kochia seedlings; assay type: in vivo, Kochia scoparia; conditions: R biotype seedlings; FIG. 5
# Protocol: The root elongation response of seedlings from the R and S Kochia biotypes was tested to determine if the R biotype response was consistent with the Y2H findings. For root elongation studies, plant nutrient media was used, with 0.5% sucrose. Seeds were surface sterilized in 30% bleach with 0.1% Triton-X100 for 10 to 30 minutes, then rinsed twice in sterile water and resuspended in 0.1% agar for plating. Root lengths were measured to the nearest millimeter, and the average root length of 12 individuals was calculated unless otherwise noted.
# [5] = system: Kochia F2 progeny (S/S, R/S, R/R); conditions: spray 1120 g/ha
# Protocol: To determine whether the KsIAA16R allele co-segregates with the dicamba resistance phenotype, spray tests were performed on Kochia populations comprising S and R plants. Crosses between S and R individuals were performed, utilizing the S biotype as the female and the R biotype as the male in order to identify individuals resulting from cross pollination. […] Several verified heterozygous F1 plants were selected for F2 seed production. In addition, a subset of S/S and R/S individuals from the F1 generation was subjected to dicamba sprays to ensure that the marker could effectively identify the R allele.
# To determine whether the KsIAA16R allele co-segregates with the dicamba resistance phenotype, 720 F2 progeny from verified heterozygous F1 parental plants were sampled and genotyped, and tolerance to a dicamba spray concentration double the typical dicamba field use rate (1120 g/ha) was determined. Plant identity was maintained throughout the experiment, and genotype and percent visible dicamba injury was determined for each of the F2 progeny.
# [6] = system: transgenic Arabidopsis carrying AtIAA16P:KsIAA16 constructs; assay: Root elongation inhibition assay of T2 transgenic Arabidopsis on plant nutrient plus IAA or dicamba; assay type: in vivo, Arabidopsis thaliana
# Text: To determine if the presence of the KsIAA16R allele alone was necessary and sufficient to confer dicamba resistance, several transgene expression constructs were generated for study of KsIAA16 in Arabidopsis. Agrobacterium tumefaciens was used to introduce the binary vectors in the plants using the floral dip method (Clough and Bent, 1998). Vectors contained either the ethanol inducible alcA promoter elements (Salter et al., 1998), the constitutive CaMV35S promoter, or the native Arabidopsis IAA16 promoter (AtIAA16P) driving either KsIAA16R (SEQ ID NO: 220) or KsIAA16S (SEQ ID NO: 218). GUS reporter constructs contained a 2.5 kb genomic DNA fragment from directly upstream of KsIAA16, which is expected to contain most of the promoter elements as well as the 5′UTR, driving uidA. All constructs contained either a Spectinomycin resistance gene (SPEC) or a glufosinate resistance gene (BAR) in the T-DNA region to serve as the selectable marker. For all constructs, T1 seed was harvested, surface sterilized, and plated on the appropriate selective media to identify independent T1 transformants. Single seed decent and segregation on selective media was used to estimate transgene insertion number and identify homozygous lines. For induction of the P-Alc promoter, ethanol was added to a final concentration of 0.01% just before plates were poured, and plates were used immediately. All plates were grown in a Percival growth chamber (Percival Scientific, Inc.) at 22° C. with 16 hour day/8 hour night light cycle and a light intensity of […]. Relative humidity was maintained at 50%. GUS assays were performed according to standard protocols. Briefly, a 20 mg/mL X-Gluc (GoldBio, St. Louis, Mo.) stock in dimethylformamide was diluted into 50 mM phosphate buffer, pH 7.0, to a final concentration of 1 mg/mL. This solution was added to plant tissues, and samples were placed under vacuum for 5 minutes to ensure penetration of the solution into the tissues. Samples were covered in foil to prevent light entry and place at 37° C. for 24 hours to allow color development. Staining solution was removed and chlorophyll was cleared by incubating samples in 50% ethanol for several hours.
# [7] = system: R and S Kochia biotypes; assay: Greenhouse spray test for cross-resistance of Kochia R-biotype; assay type: in vivo, Kochia scoparia; conditions: all treatments, track sprayer, 10 to 15 cm tall plants
# Text: To elucidate whether the Kochia R-biotype is cross resistant to 2,4-D or fluroxypyr, greenhouse grown 10 to 15 cm tall Kochia plants were sprayed with either Dicamba at 0,140, 280, 560, 2240, 4480, 6720, 8960, or 17920 g a.e.ha^−1; 2,4-D at 0, 70, 140, 280, 560, 1120, 2240, 4480, 6720, 8960 g a.e.ha^−1 or fluroxypyr at 0, 17.5, 35, 70, 140, 280, 420, 560, 1120, 2240 g a.e.ha^−1 with a track sprayer. […]
# [8] = system: dicamba resistant Kochia biotype
smiles,measurement,setting,value
"COc1c(Cl)ccc(Cl)c1C(=O)O [Dicamba, 3,6-dichloro-2-methoxybenzoic acid]",Ability to bind in combination with KsTIR1,[1]; auxin [100 mM] (text: 100 μM),exhibited interaction
same,Ability to bind in combination with KsTIR1,[1]; auxin [500 mM] (text: 500 μM),exhibited interaction
same,Ability of KsIAA16R to interact with KsTIR1 in the presence of the auxin,[2],decreased ability to interact
same,Facilitation of interaction of KsIAA16R with KsTIR1 and/or KsAFB6,[3],cannot
same,Root elongation inhibition of the R Kochia biotype,[4],resistant
same,mean injury rating,[5]; R/R individuals,24.6%
same,mean injury rating,[5]; R/S individuals,35.9%
same,mean injury rating,[5]; S/S individuals,82.3%
same,average injury per genotype (percent visible dicamba injury),[5]; genotype R/R,about 20%
same,average injury per genotype (percent visible dicamba injury),[5]; genotype R/S,about 40%
same,average injury per genotype (percent visible dicamba injury),[5]; genotype S/S,about 80%
same,Resistance in root elongation inhibition assay,[6]; four independent transformant lines carrying AtIAA16P:KsIAA16R,showed resistance
same,Root Length (in mm) of T2 transgenics on plant nutrient plus auxin,"[6]; line AtIAA16P:KsIAA16R_T2-1, +5 μM auxin",12.42 ± 1.27 mm
same,Root Length (in mm) of T2 transgenics on plant nutrient plus auxin,"[6]; line AtIAA16P:KsIAA16R_T2-2, +5 μM auxin",15.5 ± 1.45 mm
same,Root Length (in mm) of T2 transgenics on plant nutrient plus auxin,"[6]; line AtIAA16P:KsIAA16R_T2-3, +5 μM auxin",15.58 ± 1.57 mm
same,Root Length (in mm) of T2 transgenics on plant nutrient plus auxin,"[6]; line AtIAA16P:KsIAA16R_T2-4, +5 μM auxin",17.5 ± 2.12 mm
same,Root Length (in mm) of T2 transgenics on plant nutrient plus auxin,"[6]; line AtIAA16P:KsIAA16S_T2-1, +5 μM auxin",13.50 ± 1.01 mm
same,Root Length (in mm) of T2 transgenics on plant nutrient plus auxin,"[6]; line AtIAA16P:KsIAA16S_T2-2, +5 μM auxin",11.42 ± 1.28 mm
same,Root Length (in mm) of T2 transgenics on plant nutrient plus auxin,"[6]; line AtIAA16P:KsIAA16S_T2-3, +5 μM auxin",14.17 ± 0.9 mm
same,Root Length (in mm) of T2 transgenics on plant nutrient plus auxin,"[6]; line AtIAA16P:KsIAA16S_T2-4, +5 μM auxin",10.67 ± 0.72 mm
same,Root Length (in mm) on plant nutrient plus auxin,"[6]; non-transgenic WT, +5 μM auxin",9.08 ± 0.66 mm
same,Resistance in root elongation inhibition assay,[6]; only one of the four lines carrying AtIAA16P:KsIAA16S,very slight resistance
same,Visible injury at 14 days after treatment (DAT),[7],observed
same,fold increase in dicamba resistance,[8],~30 fold
